± gives the expanded uncertainty stated by the source.

The conditions of the series: for Normal melting temperature: Crystal, DTA; for Glass transition temperature: DSC.

For the compound `CCCCCCCCCC[N+](C)(CCO)CCO.[Br-]` [N,N-bis(2-hydroxyethyl)-N-methyldecan-1-aminium bromide], the Normal melting temperature was 47 ± 6 °C.

`CCCCCC[N+](C)(CCO)CCO.[Br-]` [N,N-bis(2-hydroxyethyl)-N-methylhexan-1-aminium bromide]: the Glass transition temperature was -47 ± 6 °C.

On to `CCCC[N+](C)(CCO)CCO.[Br-]` [N,N-bis(2-hydroxyethyl)-N-methylbutan-1-aminium bromide], for which the Glass transition temperature is -49 ± 6 °C.

Regarding `CCCCCCCC[N+](C)(CCO)CCO.[Br-]` [N,N-bis(2-hydroxyethyl)-N-methyloctan-1-aminium bromide], the Normal melting temperature worked out at 27 ± 6 °C.

Regarding `CCCC[N+](CCO)(CCO)CCCC.[Br-]` [N-butyl-N,N-bis(2-hydroxyethyl)butan-1-aminium bromide], the Glass transition temperature was -50 ± 6 °C.

The values are drawn from the NIST ThermoML archive (doi:10.1016/j.jct.2017.10.017).
